Results: patent publication US4234579A, “Penicillanic acid 1,1-dioxides as β-lactamase inhibitors” (priority 1979, dated 1980)
Where two headings read alike, the source gives them in different places.

Assays:
Test in all cases: Mode MIC of antibiotic and PA 1,1-Dioxide alone and in combination
Assay type in all cases: cell-based
Staphylococcus aureus = settings: for MIC: Staphylococcus aureus, 18 h, read-out: Mode MIC alone
Description: (§1) As indicated hereinbefore, the compounds of formula I, wherein R^1 is hydrogen or an ester-forming residue readily hydrolyzable in vivo, are antibacterial agents of medium potency. […] The procedure which is followed is the one recommended by the International Collaborative Study on Antibiotic Sensitivity Testing (Ericcson and Sherris, Acta. Pathologica et Microbiologia Scandinav, Supp. 217, Section B: 64-68 [1971]), and employs brain heart infusion (BHI) agar and the inocula replicating device. Overnight growth tubes are diluted 100 fold for use as the standard inoculum (20,000-10,000 cells in approximately 0.002 ml. are placed on the agar surface; 20 ml. of BHI agar/dish). Twelve 2 fold dilutions of the test compound are employed, with initial concentration of the test drug being 200 mcg./ml. Single colonies are disregarded when reading plates after 18 hrs. at 37° C. The susceptibility (MIC) of the test organism is accepted as the lowest concentration of compound capable of producing complete inhibition of growth as judged by the naked eye.
(§2) The manner in which the said compounds of the formula I increase the effectiveness of a β-lactam antibiotic can be appreciated by reference to experiments in which the MIC of a given antibiotic alone, and a compound of the formula I wherein R^1 is hydrogen, alone, are measured. These MIC's are then compared with the MIC values obtained with a combination of the given antibiotic and the compound of the formula I wherein R^1 is hydrogen. […] The MIC values of combinations are measured using the method described by Barry and Sabath in "Manual of Clinical Microbiology", edited by Lenette, Spaulding and Truant, 2nd Edition, 1974, American Society for Microbiology.
(§3) From Table II, it can be seen that against 19 ampicillin-resistant strains of Staphylococcus aureus, the mode MIC of ampicillin, and of penicillanic acid 1,1-dioxide, is 200 mcg./ml. […] The other entries in Table II show enhancement of the antibacterial effectiveness of ampicillin against 26 ampicillin resistant strains of Haemophilus influenzae, 18 ampicillin resistant strains of Klebsiella pneumoniae, and 15 strains of the anerobe Bacteroides fragilis. Tables III, IV and V show enhancement of the antibacterial potency of benzylpenicillin (penicillin G) carbenicillin (α-carboxybenzylpenicillin) and cefazolin, respectively, against strains of S. aureus, H. influenzae, K. pneumoniae and Bacteroides fragilis.

Klebsiella pneumoniae = settings: for MIC: Klebsiella pneumoniae, 18 h, read-out: Mode MIC alone
Description: as §1, §2, §3

Bacteroides fragilis = settings: for MIC: Bacteroides fragilis, 18 h, read-out: Mode MIC alone
Description: as §1, §2, §3

Haemophilus influenzae = settings: for MIC: Haemophilus influenzae, 18 h, alone
Description: as §1, §2, §3

CC1(C)S[C@@H]2[C@H](NC(=O)[C@H](N)c3ccccc3)C(=O)N2[C@H]1C(=O)O [ampicillin, reference compound]
MIC (Staphylococcus aureus; Table II, 19 ampicillin-resistant strains, alone): 200 µg/mL | Mode MIC's of ampicillin and PA 1,1-Dioxide in combination (Staphylococcus aureus; Table II, 19 ampicillin-resistant strains, ampicillin + PA 1,1-Dioxide in combination): 1.56 µg/mL | MIC (Klebsiella pneumoniae; Table II, 18 ampicillin resistant strains, alone): > 400 µg/mL | Mode MIC's of ampicillin and PA 1,1-Dioxide in combination (Klebsiella pneumoniae; Table II, 18 ampicillin resistant strains, ampicillin + PA 1,1-Dioxide in combination): 6.25 µg/mL | MIC (Bacteroides fragilis; Table II, 15 strains, alone): 50 µg/mL | Mode MIC's of ampicillin and PA 1,1-Dioxide in combination (Bacteroides fragilis; Table II, 15 strains, ampicillin + PA 1,1-Dioxide in combination): 1.56 µg/mL | MIC (Haemophilus influenzae; Table II, 26 ampicillin resistant strains, read-out: Mode MIC alone): 200 µg/mL | Mode MIC's of ampicillin and PA 1,1-Dioxide in combination (Haemophilus influenzae; Table II, 26 ampicillin resistant strains, ampicillin + PA 1,1-Dioxide in combination): 0.78 µg/mL

CC1(C)S[C@@H]2[C@H](NC(=O)C(C(=O)O)c3ccccc3)C(=O)N2[C@H]1C(=O)O (stereo partly drawn) [carbenicillin, α-carboxybenzylpenicillin, reference compound]
MIC (Staphylococcus aureus; Table IV, 20 strains, alone): 12.5 µg/mL | Mode MIC's of carbenicillin and PA 1,1-Dioxide in combination (Staphylococcus aureus; Table IV, 20 strains, carbenicillin + PA 1,1-Dioxide in combination): 6.25 µg/mL | MIC (Klebsiella pneumoniae; Table IV, 16 strains, alone): > 400 µg/mL | Mode MIC's of carbenicillin and PA 1,1-Dioxide in combination (Klebsiella pneumoniae; Table IV, 16 strains, carbenicillin + PA 1,1-Dioxide in combination): 50 µg/mL | MIC (Bacteroides fragilis; Table IV, 15 strains, alone): 50 µg/mL | Mode MIC's of carbenicillin and PA 1,1-Dioxide in combination (Bacteroides fragilis; Table IV, 15 strains, carbenicillin + PA 1,1-Dioxide in combination): 3.12 µg/mL | MIC (Haemophilus influenzae; Table IV, 25 strains, read-out: Mode MIC alone): 6.25 µg/mL | Mode MIC's of carbenicillin and PA 1,1-Dioxide in combination (Haemophilus influenzae; Table IV, 25 strains, carbenicillin + PA 1,1-Dioxide in combination): 0.39 µg/mL

CC1(C)S[C@@H]2[C@H](NC(=O)Cc3ccccc3)C(=O)N2[C@H]1C(=O)O [penicillin G, reference compound]
MIC (Staphylococcus aureus): 200 µg/mL | Mode MIC's of penicillin G and PA 1,1-Dioxide in combination (Staphylococcus aureus; Table III, 20 strains, penicillin G + PA 1,1-Dioxide in combination): 3.12 µg/mL | MIC (Klebsiella pneumoniae): 400 µg/mL | Mode MIC's of penicillin G and PA 1,1-Dioxide in combination (Klebsiella pneumoniae; Table III, 24 strains, penicillin G + PA 1,1-Dioxide in combination): 25 µg/mL | MIC (Bacteroides fragilis): 25 µg/mL | Mode MIC's of penicillin G and PA 1,1-Dioxide in combination (Bacteroides fragilis; Table III, 15 strains, penicillin G + PA 1,1-Dioxide in combination): 1.56 µg/mL | MIC (Haemophilus influenzae; read-out: Mode MIC alone, Table III, 25 strains): 50 µg/mL | Mode MIC's of penicillin G and PA 1,1-Dioxide in combination (Haemophilus influenzae; Table III, 25 strains, penicillin G + PA 1,1-Dioxide in combination): 0.78 µg/mL
